# According to PMC7614683, “A small molecule PI3Kα activator for cardioprotection and neuroregeneration” (Nature, 2023):
# Read-outs that look alike come from different tables or passages of the source.
# Tests used:
# Assay in all cases: SelectScreen Z-LYTE kinase activity assay (SI Table 6)
# Format in all cases: biochemical
# [1] = biological target: T1, protein kinases of the Z-LYTE panel (Homo sapiens, UniProt P54762)
# T1 sequence (P54762 18-984): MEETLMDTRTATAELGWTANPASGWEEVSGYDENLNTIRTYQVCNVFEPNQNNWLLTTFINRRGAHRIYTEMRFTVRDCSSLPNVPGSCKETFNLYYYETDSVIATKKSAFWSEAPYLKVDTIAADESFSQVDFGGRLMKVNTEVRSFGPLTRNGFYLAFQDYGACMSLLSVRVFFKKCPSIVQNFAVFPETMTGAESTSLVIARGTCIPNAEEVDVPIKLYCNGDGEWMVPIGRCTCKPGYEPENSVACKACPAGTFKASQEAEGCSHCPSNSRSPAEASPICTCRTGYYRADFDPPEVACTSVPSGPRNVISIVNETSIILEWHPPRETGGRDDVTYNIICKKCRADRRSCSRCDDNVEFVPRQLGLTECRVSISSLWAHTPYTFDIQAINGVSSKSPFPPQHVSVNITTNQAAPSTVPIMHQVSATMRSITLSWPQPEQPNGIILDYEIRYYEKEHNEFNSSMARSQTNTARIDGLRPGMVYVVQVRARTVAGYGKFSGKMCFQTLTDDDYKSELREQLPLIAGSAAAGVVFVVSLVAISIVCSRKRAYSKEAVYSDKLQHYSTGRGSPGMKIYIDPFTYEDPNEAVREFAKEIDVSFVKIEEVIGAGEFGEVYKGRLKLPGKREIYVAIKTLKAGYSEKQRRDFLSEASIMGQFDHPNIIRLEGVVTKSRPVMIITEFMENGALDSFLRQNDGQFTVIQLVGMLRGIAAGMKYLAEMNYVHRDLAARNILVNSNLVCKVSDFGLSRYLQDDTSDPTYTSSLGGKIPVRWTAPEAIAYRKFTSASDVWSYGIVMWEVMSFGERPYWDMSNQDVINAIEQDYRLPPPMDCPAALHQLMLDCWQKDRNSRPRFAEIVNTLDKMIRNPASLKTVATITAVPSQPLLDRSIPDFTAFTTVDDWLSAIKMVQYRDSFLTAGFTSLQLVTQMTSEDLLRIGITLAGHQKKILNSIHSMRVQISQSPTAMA
# How it was run: (§1)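 Kinases in the SelectScreen panel (Adapta, LanthaScreen binding, Z-LYTE formats) were tested against compound at 1 μM. Separately, ATM (100 nM, 5 μM GST-p53, 1 mM ATP, 30 min, 30°C) and mTORC1 (50 nM, 15 μM 4E-BP1, 250 μM ATP, 3 h) were run with 200 μM compound. Those products were read on Phos-tag gels.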
# [2] = biological target: T2, protein kinases of the Z-LYTE panel (Homo sapiens, UniProt P43403)
# T2 sequence (P43403 1-619): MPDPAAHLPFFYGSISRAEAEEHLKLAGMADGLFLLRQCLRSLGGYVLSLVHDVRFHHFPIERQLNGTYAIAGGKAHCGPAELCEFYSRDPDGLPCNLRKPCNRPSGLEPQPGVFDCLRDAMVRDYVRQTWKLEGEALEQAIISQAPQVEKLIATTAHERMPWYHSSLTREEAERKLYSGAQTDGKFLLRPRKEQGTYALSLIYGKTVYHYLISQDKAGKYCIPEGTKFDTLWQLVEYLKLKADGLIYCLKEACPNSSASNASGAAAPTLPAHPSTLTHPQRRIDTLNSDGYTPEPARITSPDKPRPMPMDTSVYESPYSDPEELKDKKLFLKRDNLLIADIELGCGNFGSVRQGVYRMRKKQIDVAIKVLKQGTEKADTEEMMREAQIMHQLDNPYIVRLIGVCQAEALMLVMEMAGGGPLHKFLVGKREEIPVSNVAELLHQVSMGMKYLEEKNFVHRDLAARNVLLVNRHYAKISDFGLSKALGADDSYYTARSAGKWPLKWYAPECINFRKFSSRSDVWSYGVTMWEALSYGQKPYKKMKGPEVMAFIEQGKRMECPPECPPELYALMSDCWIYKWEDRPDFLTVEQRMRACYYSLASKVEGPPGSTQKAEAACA
# How it was run: as §1
# [3] = biological target: protein kinases of the Z-LYTE panel (Homo sapiens, UniProt P49137)
# How it was run: as §1
# [4] = biological target: protein kinases of the Z-LYTE panel (Homo sapiens, UniProt P17948)
# How it was run: as §1
# Sequence of protein kinases of the Z-LYTE panel (Homo sapiens, UniProt P17948) (P17948 27-1338): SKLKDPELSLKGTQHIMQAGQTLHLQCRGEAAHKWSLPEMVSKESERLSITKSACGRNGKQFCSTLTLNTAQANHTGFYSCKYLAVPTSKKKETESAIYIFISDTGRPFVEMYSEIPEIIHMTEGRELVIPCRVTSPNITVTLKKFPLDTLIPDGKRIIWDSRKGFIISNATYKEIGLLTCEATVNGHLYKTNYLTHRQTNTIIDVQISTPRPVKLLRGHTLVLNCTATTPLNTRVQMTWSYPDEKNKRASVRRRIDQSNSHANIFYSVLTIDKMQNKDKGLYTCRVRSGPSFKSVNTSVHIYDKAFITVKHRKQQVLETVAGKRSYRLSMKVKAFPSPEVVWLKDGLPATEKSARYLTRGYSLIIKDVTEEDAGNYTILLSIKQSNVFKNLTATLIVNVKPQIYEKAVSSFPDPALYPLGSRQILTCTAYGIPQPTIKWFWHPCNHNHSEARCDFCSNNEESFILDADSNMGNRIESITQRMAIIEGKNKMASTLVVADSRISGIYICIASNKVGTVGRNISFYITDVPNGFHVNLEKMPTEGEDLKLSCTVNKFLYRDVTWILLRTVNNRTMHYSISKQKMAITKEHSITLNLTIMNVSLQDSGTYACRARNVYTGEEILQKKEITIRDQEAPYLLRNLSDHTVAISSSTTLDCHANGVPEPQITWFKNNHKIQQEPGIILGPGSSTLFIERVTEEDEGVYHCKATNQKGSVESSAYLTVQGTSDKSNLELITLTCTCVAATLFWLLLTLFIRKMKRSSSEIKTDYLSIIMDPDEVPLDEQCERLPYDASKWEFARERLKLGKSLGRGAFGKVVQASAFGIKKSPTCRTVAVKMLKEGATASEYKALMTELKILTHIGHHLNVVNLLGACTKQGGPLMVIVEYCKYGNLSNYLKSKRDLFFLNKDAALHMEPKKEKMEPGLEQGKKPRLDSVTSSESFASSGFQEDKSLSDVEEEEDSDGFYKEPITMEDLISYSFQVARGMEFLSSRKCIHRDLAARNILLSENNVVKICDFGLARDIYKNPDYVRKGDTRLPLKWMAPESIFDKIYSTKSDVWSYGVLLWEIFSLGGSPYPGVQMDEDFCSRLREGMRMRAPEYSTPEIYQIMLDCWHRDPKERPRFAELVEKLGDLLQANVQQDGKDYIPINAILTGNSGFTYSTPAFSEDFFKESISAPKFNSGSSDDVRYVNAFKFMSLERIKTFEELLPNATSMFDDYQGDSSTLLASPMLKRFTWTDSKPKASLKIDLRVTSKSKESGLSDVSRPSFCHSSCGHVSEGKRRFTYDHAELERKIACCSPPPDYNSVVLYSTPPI
# Sequence of protein kinases of the Z-LYTE panel (Homo sapiens, UniProt P49137) (P49137 whole entry): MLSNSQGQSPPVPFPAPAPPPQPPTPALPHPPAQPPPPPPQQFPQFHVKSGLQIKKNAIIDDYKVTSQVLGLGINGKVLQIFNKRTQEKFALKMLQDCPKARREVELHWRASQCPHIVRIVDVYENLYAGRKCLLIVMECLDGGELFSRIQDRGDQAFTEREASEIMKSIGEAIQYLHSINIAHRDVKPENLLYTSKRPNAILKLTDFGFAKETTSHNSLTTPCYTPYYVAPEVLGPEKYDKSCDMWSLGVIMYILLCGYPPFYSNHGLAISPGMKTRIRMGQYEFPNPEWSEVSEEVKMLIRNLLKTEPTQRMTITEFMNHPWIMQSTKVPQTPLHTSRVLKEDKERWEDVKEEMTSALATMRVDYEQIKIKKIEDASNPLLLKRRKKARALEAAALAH
smiles,measurement,setting,value
CCN1CCN(c2ccc(Nc3cc(Nc4cccc5c4N(C(C)=O)CC5)ccn3)cc2)CC1 [Compound 1938],inhibition at 1 µM,[1]; read-out: % Inhibition Point 1,11%
same,inhibition at 1 µM,[1]; read-out: % Inhibition Point 2,11%
same,inhibition at 1 µM,[1]; read-out: % Inhibition mean,11%
same,inhibition at 1 µM,[2]; read-out: % Inhibition Point 1,3%
same,inhibition at 1 µM,[2]; read-out: % Inhibition Point 2,-4.63%
same,inhibition at 1 µM,[2]; read-out: % Inhibition mean,-0.814%
same,inhibition at 1 µM,[3]; read-out: % Inhibition Point 1,-0.0637%
same,inhibition at 1 µM,[3]; read-out: % Inhibition Point 2,-0.692%
same,inhibition at 1 µM,[3]; read-out: % Inhibition mean,-0.378%
same,inhibition at 1 µM,[4]; read-out: % Inhibition Point 1,1.74%
same,inhibition at 1 µM,[4]; read-out: % Inhibition Point 2,1.66%
same,inhibition at 1 µM,[4]; read-out: % Inhibition mean,1.7%
